The values that follow are results of earlier work, collected in patent publication US20030059487A1, “Composition and method for the treatment of hypercholesterolemia and hyperlipidemia in mammals” (priority 2001, published 2003).

Each structure is given as a SMILES string.

For this data set the following is noted: background statement on Lipitor.

For the compound `CC(C)c1c(C(=O)Nc2ccccc2)c(-c2ccccc2)c(-c2ccc(F)cc2)n1CC[C@@H](O)C[C@@H](O)CC(=O)O` [atorvastatin], the “raises HDL cholesterol” value is on record as 5 to 10%, the “reduces LDL” value is on record as 40 to 60% and the reduces triglycerides is on record as 20 to 40%.
